According to article PMC11120408 (Foods, 2024):

Columns and labels:
Format in all cases: biochemical, bovine
[1] = target: T1, BSA–fructose (Fru) system (Bos taurus, UniProt P02769); test: Structural analysis of glycated BSA (CD, ThT cross-β structure)
Protocol: The changes in the secondary structures of the proteins were determined using the CD spectroscopy method on a New MOS-450 spectropolarimeter (Biologic, Seyssinet-Pariset, France). The spectra were collected over the far-UV range of 200–260 nm using a quartz cell (with an inner diameter of 1 mm) under an atmosphere of nitrogen at room temperature. Each spectrum was the average of at least three consecutive scans at a scan speed of 100 nm min^−1 with a bandwidth of 1 nm, and it was corrected for the buffer signal. The proportion of different secondary structures was calculated using the online CONTIN program (http://dichroweb.cryst.bbk.ac.uk/html/home.shtml, accessed on 4 April 2023).
The secondary structure contents of BSA before and after glycosylation were determined using CD measurement referring to the experimental procedure in Section 2.3.2.
As a popular fluorescent probe for protein aggregation, thioflavin T (ThT) was used for the detection of the amyloid β-structure of glycated BSA [29, 30]. The samples were treated with ThT (a final concentration of 0.016 mg mL^−1) at room temperature for 1 h in the dark. The ThT fluorescence intensity (excitation: 435 nm; emission: 485 nm) of the sample was recorded on a spectrofluorometer.

[2] = target: T1, BSA–fructose (Fru) system; test: Total carbonyl and thiol group content of glycated BSA; conditions: 0.200 mg mL^−1
Protocol: A reported method was adopted and a slight modification was made to determine the protein carbonyl group content (PCO). Briefly, 100 μL of native BSA solution or sample solution acquired in Section 2.4.1 was incubated with DNPH solution (400 μL, 10 mM, dissolved in 2.0 M HCl) for 1 h at room temperature, with vortexing every 10 min. The sample solution without DNPH was regarded as the blank group. Then, 1000 μL of trichloroacetic acid (TCA) solution (20% (w/v)) was added, and the resulting mixture was kept at 277 K for 10 min, followed by centrifugation (10,000 rpm, 10 min, 277 K). The residue was extracted with ethanol/ethyl acetate (1:1, v/v) three times, and subsequently suspended and mixed thoroughly in 1000 μL of guanidine hydrochloride (6.0 M, pH 6.6), followed by incubating at 310 K for 15 min. The UV absorbance was recorded at 370 nm on an Infinite® M200 PRO plate reader (Tecan, Männedorf, Switzerland). The total protein carbonyl group content was calculated using the following equation:(4) PCO(nmol/mg protein)=Asample−AblankVreaction/ε1dVsampleCpro×1000 where Asample and Ablank are the absorbances of a tested sample with or without DNPH, respectively. ε1 represents the absorption coefficient of 22,000 M^−1cm^−1, and d is the cuvette length (0.5 cm). […]
The content of the free SH group was assessed using Ellman’s method with slight changes. […]

[3] = target: T1, BSA–fructose (Fru) system; test: Anti-glycation: glycation products in BSA–Fru system; conditions: 0.200 mg mL^−1; end stage
Protocol: Considering that Monascus pigments (MPs) are usually applied in the form of a mixture, the extract of Monascus-fermented rice (a high content of six known Monascus pigments, Figure S2) was selected to evaluate the anti-glycation capacity of MPs in a reaction in vitro using BSA as a model protein glycation by Fru. Briefly, BSA and Fru were dissolved in PBS solution of pH 7.4, and their final concentrations were 10.0 mg mL^−1 and 0.5 M, respectively. Then, a series of MPs were added into the above system with final concentrations of 0.005, 0.025, 0.050, 0.100, 0.150, and 0.200 mg mL^−1. After filtered through a sterile 0.22 μm membrane, the reaction mixture was incubated at 323 K for 24 h. The glycosylation products, namely fructosamine (in the early stage), α-dicarbonyl compounds (in the middle stage), and fluorescent AGEs (in the end stage), were detected according to our previous report. Here, AG was a positive control.

[4] = target: T1, BSA–fructose (Fru) system; test: Surface hydrophobicity of glycated BSA (BPB, ANS)

T1 sequence (P02769 25-607): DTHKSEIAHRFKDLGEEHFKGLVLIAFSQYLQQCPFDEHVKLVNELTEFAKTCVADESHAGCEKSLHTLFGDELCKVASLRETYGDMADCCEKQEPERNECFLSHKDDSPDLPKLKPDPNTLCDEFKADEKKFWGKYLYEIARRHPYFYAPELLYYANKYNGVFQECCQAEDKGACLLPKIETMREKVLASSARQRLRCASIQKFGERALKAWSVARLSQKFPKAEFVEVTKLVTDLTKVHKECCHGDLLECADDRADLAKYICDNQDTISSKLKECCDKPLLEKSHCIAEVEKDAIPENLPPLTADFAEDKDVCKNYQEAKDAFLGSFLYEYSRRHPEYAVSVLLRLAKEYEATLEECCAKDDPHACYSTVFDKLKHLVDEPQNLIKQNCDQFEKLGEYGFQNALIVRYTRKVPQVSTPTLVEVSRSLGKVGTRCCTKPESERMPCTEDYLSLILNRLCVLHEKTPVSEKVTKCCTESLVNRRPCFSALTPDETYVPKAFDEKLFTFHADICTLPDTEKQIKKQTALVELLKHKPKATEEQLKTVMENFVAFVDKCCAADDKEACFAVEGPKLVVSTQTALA

In the case of N=C(N)NN [AG, aminoguanidine], the “inhibition rate against generation of cross-β structure (ThT)” value ([1]; 0.005 mg mL^−1) is reported as 27.6%, the “inhibition rate against generation of cross-β structure (ThT)” value ([1]; 0.200 mg mL^−1) is reported as 41.4% and the “α-helical structure content of treated glycated BSA (CD)” value ([1]; glycated BSA 47.8%, native BSA 67.6%) is reported as 58.3%. For the same compound, the “free SH group content of glycated BSA after treatment” value ([2]; glycated BSA 2.3, native BSA 3.6) was 2.7 µmol/g, the “carbonyl group content of glycated BSA after treatment” value ([2]; glycated BSA 35.6, native BSA 2.5) was 15.7 nmol/mg and the “inhibition rate of fluorescent AGE formation” value [3] was 75.7%. For the same compound, the “change of ANS fluorescence intensity of glycated BSA” value ([4]; ANS binding) was “increased slightly” and the “change of BPB content bound to glycated BSA (surface hydrophobicity)” value ([4]; BPB binding) was “increased”.
